The source made the active and inactive calls. No cut-off for these calls is given here.
What was measured:
[1] = biological target: T1, Peroxisome proliferator-activated receptor gamma (Homo sapiens, UniProt P37231)
T1 sequence (P37231 whole entry): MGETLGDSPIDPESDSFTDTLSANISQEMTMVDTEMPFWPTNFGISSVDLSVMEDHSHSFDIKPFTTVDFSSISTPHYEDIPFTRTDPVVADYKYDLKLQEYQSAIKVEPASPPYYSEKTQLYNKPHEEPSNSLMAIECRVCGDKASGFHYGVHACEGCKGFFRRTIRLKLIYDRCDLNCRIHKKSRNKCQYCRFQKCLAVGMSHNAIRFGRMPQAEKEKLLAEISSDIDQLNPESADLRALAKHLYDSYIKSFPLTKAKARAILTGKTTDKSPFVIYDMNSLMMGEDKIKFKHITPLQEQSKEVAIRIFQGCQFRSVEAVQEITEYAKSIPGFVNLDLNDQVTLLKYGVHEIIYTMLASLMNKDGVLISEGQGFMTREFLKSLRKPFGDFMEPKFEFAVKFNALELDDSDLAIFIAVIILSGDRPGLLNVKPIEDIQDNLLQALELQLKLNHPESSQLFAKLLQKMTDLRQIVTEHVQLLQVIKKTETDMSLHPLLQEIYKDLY
Description: Agonist activity at human PPARgamma in U2OS cells by transactivation assay

[2] = biological target: T2, Peroxisome proliferator-activated receptor alpha (Homo sapiens, UniProt Q07869); experiment: Agonist activity at human PPARalpha in U2OS cells by transactivation assay
T2 sequence (Q07869 whole entry): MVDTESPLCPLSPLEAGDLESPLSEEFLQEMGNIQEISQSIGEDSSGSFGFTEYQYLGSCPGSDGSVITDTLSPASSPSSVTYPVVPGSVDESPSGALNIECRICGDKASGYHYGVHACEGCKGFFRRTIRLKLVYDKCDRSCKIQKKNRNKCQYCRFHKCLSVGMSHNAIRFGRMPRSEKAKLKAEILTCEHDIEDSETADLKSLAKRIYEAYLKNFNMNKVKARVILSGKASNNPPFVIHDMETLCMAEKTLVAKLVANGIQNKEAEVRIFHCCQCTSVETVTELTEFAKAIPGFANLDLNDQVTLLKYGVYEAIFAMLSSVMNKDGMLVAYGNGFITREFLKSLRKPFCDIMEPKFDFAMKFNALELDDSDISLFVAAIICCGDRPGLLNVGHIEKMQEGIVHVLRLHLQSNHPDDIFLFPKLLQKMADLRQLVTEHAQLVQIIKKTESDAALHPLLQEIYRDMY

[3] = biological target: T3, Peroxisome proliferator-activated receptor alpha (Homo sapiens) (UniProt Q07869); experiment: Agonist activity at human PPARalpha in U2OS cells by transactivation assay relative to WY-14643; format: functional, cell-based
T3 sequence (whole entry): T2 sequence (Q07869 whole entry)

Structure (SMILES)	EC50 [1] [nM]	EC50 [2] [nM]	%max [3]	EC50 ([2]; u2os)
COC(=O)c1cc2ccc(OCCc3nc(-c4cccc(C(F)(F)F)c4)oc3C)cc2oc1=O	420	1200	21%	
COC(=O)C1Cc2ccc(OCCc3nc(-c4ccc(-c5ccccc5)cc4)oc3C)cc2OC1=O (stereo unspecified)	1120	910	68%	
COC(=O)C1Cc2ccc(OCCc3nc(-c4cccc(C)c4)oc3C)cc2OC1=O (stereo unspecified)	1	1550	83%	
COC(=O)C1Cc2ccc(OCCc3nc(-c4ccccc4)oc3C)cc2OC1=O (stereo unspecified)	130	140	42%	
COC(=O)c1cc2ccc(OCCc3nc(-c4ccc(C)cc4)oc3C)cc2oc1=O	1	1	65%	
Cc1cccc(Nc2cc(Cl)nc(SCC(=O)O)n2)c1C			100%	
COC(=O)C1Cc2ccc(OCCc3nc(-c4cccc(C(F)(F)F)c4)oc3C)cc2OC1=O (stereo unspecified)	160	170	23%	
COC(=O)C1Cc2ccc(OCCc3nc(-c4ccc(F)cc4)oc3C)cc2OC1=O (stereo unspecified)	1	100	98%	
COC(=O)c1cc2ccc(OCCc3nc(-c4cccc(F)c4)oc3C)cc2oc1=O	960	1290	38%	
COC(=O)c1cc2ccc(OCCc3nc(-c4ccc(OC)cc4)oc3C)cc2oc1=O	1	5250	163%	
COC(=O)c1cc2ccc(OCCc3nc(-c4ccc(F)cc4)oc3C)cc2oc1=O	1620	70	44%	
COC(=O)C1Cc2ccc(OCCc3nc(-c4ccc(OC)cc4)oc3C)cc2OC1=O (stereo unspecified)	1	1740	96%	
COC(=O)C1Cc2ccc(OCCc3nc(-c4cccc(F)c4)oc3C)cc2OC1=O (stereo unspecified)	170	720	30%	
COC(=O)C1Cc2ccc(OCCc3nc(-c4cccc(OC)c4)oc3C)cc2OC1=O (stereo unspecified)	100	1200	23%	
COC(=O)C1Cc2ccc(OCCc3nc(-c4ccc(C)cc4)oc3C)cc2OC1=O (stereo unspecified)	1	910	94%	
COC(=O)c1cc2ccc(OCCc3nc(-c4ccc(C(C)(C)C)cc4)oc3C)cc2oc1=O	1740	2290	90%	
COC(=O)c1cc2ccc(OCCc3nc(-c4cccc([N+](=O)[O-])c4)oc3C)cc2oc1=O	3550		inactive	Not Active
COC(=O)c1cc2ccc(OCCc3nc(-c4cccc(OC)c4)oc3C)cc2oc1=O	350	1620	100%	
COC(=O)C1Cc2ccc(OCCc3nc(-c4ccc(C(C)(C)C)cc4)oc3C)cc2OC1=O (stereo unspecified)	250	100	26%	
COC(=O)c1cc2ccc(OCCc3nc(-c4ccc(-c5ccccc5)cc4)oc3C)cc2oc1=O	1260	1230	116%	
COC(=O)c1cc2ccc(OCCc3nc(-c4cccc(C)c4)oc3C)cc2oc1=O	1		inactive	Not Active

— ChEMBL document CHEMBL1154459, “Synthesis and evaluation of a series of benzopyran derivatives as PPAR alpha/gamma agonists” (Eur J Med Chem, 2008)
